In data set [1] the test system is PCK rat (a recessive PKD model). The settings on record: Wang et al., 2008; cited from earlier work.
For data set [2], the system named is HDAC5 phosphorylation (Ser489). In words: HDAC5 phosphorylation immunoblot in MEK cells without or with fluid flow. Format: cell-based, mouse. Particulars: for HDAC5 phosphorylation in the absence of fluid flow: no fluid flow, PMA 100 nM, ionomycin 1 μM, phospho-specific antibody; for fluid flow-induced HDAC5 phosphorylation: fluid flow 0.2 ml/min, GÖ6983 10 μM, GdCl3 20 μM. On the procedure:
(§1) Confluent mouse embryonic kidney (MEK) cells were cultured for 1-2 additional days in the absence of interferon-γ to induce optimal differentiation (Nauli et al., 2003). Hanks' Balanced Salt Solution with 20.0 mM HEPES buffer (pH 7.4) and 1% bovine serum albumin was used for calcium imaging and cell culture media for the other experiments. Fluid flow was applied at 0.2 ml/min using a peristaltic pump in 35 mm dishes or 6-well plates, with tubings connected through two 18 Gauge needles at opposing sides of a well (FIG. 9A). Time-lapse imaging was performed on an Axiovert 200M inverted microscope (Karl Zeiss Microlmaging Inc., Thornwood, N.Y.) equipped with a 20×/0.8 NA Plan-Apochromat objective, a Pecon XL-3 environmental chamber (PeCon GmbH, Erbach, Germany) and an AxioCam HSm r1.1 digital monochrome camera (Karl Zeiss). In drug treatments, […] (Sigma-Aldrich, St. Louis, Mo.) was used at 100 nM, GÖ6983 (Sigma-Aldrich) at 10 μM, ionomycin (Sigma-Aldrich) at 1 μM, and GdCl3 (Sigma-Aldrich) at 20 μM.
Whether fluid flow across monolayers of MEK cells led to endogenous HDAC5 phosphorylation was determined using a phospho-specific antibody against HDAC5 Ser489 site (equivalent of Ser498 of human HDAC5) (Bossuyt et al., 2008). While HDAC5 phosphorylation level was low prior to fluid flow onset, an increase in phosphorylation was observed 30 minutes after the start of fluid flow and maintained for several hours thereafter (FIGS. 1A and 1B). The increase in HDAC5 phosphorylation was accompanied by an increase in the level of total HDAC5 (FIGS. 12A, C), consistent with the flow-induced gene expression of HDAC5 observed in the microarray analysis (Table 2). […] By contrast, HDAC5 phosphorylation was induced by the calcium ionophore, ionomycin, in the absence of fluid flow (FIG. 1D, see also FIG. 20 for the quantification of HDAC5 phosphorylation levels under various conditions). Treatment with PMA, an activator of protein kinase C(PKC), stimulated HDAC5 phosphorylation in the absence of fluid flow, while the PKC inhibitor GÖ6983 inhibited flow-induced HDAC5 phosphorylation (FIGS. 1D and 20).

Data set [3] deals with Pkd2−/− embryos. The data set is described as follows: TSA injection of pregnant Pkd2+/- mice, histology of E18.5 embryonic kidneys. Format: in vivo, mouse. The protocol: (§2) Pkd2^+/− mice were originally provided by S. Somlo (Yale University, New Haven, Conn.) and Hdac5^−/− mice by E. Olson (University of Texas Southwestern Medical Center, Dallas, Tex.). To obtain embryos of various genotypes, the mutant mice were paired and the pregnant females were sacrificed on 18.5 DPC to collect embryonic kidneys. For TSA treatment experiments pregnant Pkd2^+/− females paired with Pkd2^+/− males were subcutaneously injected daily, from 10.5 dpc to 18.5 dpc with 0.5 μg TSA (Biomol, Enzo Life Sciences Inc., Farmingdale, N.Y.) per gram mouse body weight or DMSO (solvent of TSA) in phosphate buffered saline (PBS). At the end of this treatment, females were sacrificed and embryonic kidneys were collected.
(§3) To test further the possibility that reducing the activity of HDAC5 could suppress cyst formation in Pkd2^−/− embryos, trichostatin A (TSA), a chemical inhibitor against type I and II HDACs (Drummond et al., 2005), was injected into pregnant Pkd2+/− female mice from 10.5 dpc after mating with Pkd2+/− males, and embryonic kidneys were analyzed at 18.5 dpc.

The subject of data set [4] is MEF2C. The data set is described as follows: Immunoblot of MEF2C in Pkd2−/− embryonic kidneys from TSA-treated mothers. Particulars: TSA-treated vs DMSO-treated mothers. Format: in vivo, mouse. On the procedure:
as §2, §3
For orientation: A western blot detects proteins with antibodies after separation by electrophoresis.

In data set [5] the test system is MIM. In words: Immunoblot of MIM in Pkd2−/− embryonic kidneys from TSA-treated mothers. Format: in vivo, mouse. The settings on record: TSA-treated vs DMSO-treated mothers. The protocol: as §2, §3
Data set [6] concerns HDAC5 nuclear export. The data set is described as follows: HDAC5-GFP nuclear export in transfected MEK cells. Format: cell-based, mouse. Particulars: for fluid flow-induced HDAC5 nuclear export: GÖ6983 10 μM, GdCl3. The protocol:
as §1
To determine whether HDAC5 was exported from the nucleus in response to fluid flow, FLAG-MEF2C and HDAC5-GFP constructs were co-transfected into Pkd1^+/+ and Pkd1^−/− MEK cells, and both tagged proteins correctly localized to the nucleus. Stimulation of MEK cells with fluid flow for 30 min led to translocation of HDAC5-GFP, but not FLAG-MEF2C, from the nucleus in Pkd1^+/+. MEK cells, but not in Pkd1^−/− MEK cells (FIG. 2A). […] By contrast, a HDAC5-GFP mutant lacking the 14-3-3 phosphorylation sites (HDAC5^S250/489A) was not exported (FIG. 2C), consistent with a requirement for phosphorylation of these regulatory sites in fluid flow-induced nuclear export of HDAC5. HDAC5 nuclear export also failed in Pkd1^−/− MEK cells, cells treated with GdCl3 (FIG. 2C), or the PKC inhibitor GÖ6983, while treatment with PMA stimulated HDAC5 nuclear exit even without fluid flow (FIG. 2D).

Data set [7] deals with PKD^ws25/− mice. The data set is described as follows: SAHA treatment of PKDws25/− mice (mouse model of PKD). Particulars: 4 weeks. On the procedure: PKD^ws25/− mice (Wu et al., 1998) were obtained from Albert Einstein College of Medicine (Bronx, N.Y.). PKD^ws25/− mice escape the embryonic lethality of the PKD^−/− phenotype, but recapitulate the human ADPKD phenotype in that they develop cysts early in life (Wu et al., 1998). Eight week old PKD^ws25/− mice (n=15 per group) were treated with 100 mg/kg vorinostat (SAHA) or vehicle (Veh). Animals were dosed daily by i.p. for 5 days followed by 2 days off, for a total of 4 weeks. […] At the end of study, animals were sacrificed and blood taken for analysis of blood urea nitrogen (BUN) levels using the manufacturer's protocol for Hitachi Urea Nitrogen (BUN) Reagent Set (Pointe Scientific, Inc., Canton, Mich.).

With “1-deamino-8-D-arginine vasopressin [dDAVP]”, in data set [1], the “effect on cystic disease” value is reported as “aggravated cystic disease”.

In the case of `C[C@H](CCC(=O)O)C[C@H](C)C[C@H](C)C(=O)/C=C(\O)[C@H](C)C[C@H](C)C/C=C/[C@@H](C)[C@@H](O)[C@@H](C)[C@@H](O)C[C@@H]1CC[C@@](C)([C@H]2CC[C@@](C)([C@@H](C)O)O2)O1` [ionomycin], the “HDAC5 phosphorylation in the absence of fluid flow” value in data set [2] is on record as “induced”.

`CC(/C=C/C(=O)NO)=C\[C@@H](C)C(=O)c1ccc(N(C)C)cc1` [TSA, trichostatin A]: the “kidney cyst formation in Pkd2−/− embryos” value in data set [3] (0.5 μg TSA per gram body weight s.c. daily to mothers 10.5-18.5 dpc, compared to DMSO-injected mothers) was “drastically reduced”. Further, the “morphology of renal tubules in Pkd2+/+ embryonic kidneys” value in data set [3] (Pkd2+/+ embryos from TSA-injected mothers) is reported as “did not affect”. Moreover, in data set [3] (TSA-treated mothers, as opposed to flat morphology of Pkd2−/− cyst lining cells), the “morphology of cyst lining cells in Pkd2−/− kidneys” value is listed as “more normal cuboidal morphology”. Besides, the “enhancement of expression of MEF2C” value in data set [4] came to 4 fold. Also, the “expression of MIM” value in data set [5] is reported as “drastically increased”.

`COc1ccc2c(c1)c(C1=C(c3c[nH]c4ccccc34)C(=O)NC1=O)cn2CCCN(C)C` [GÖ6983]: the “fluid flow-induced HDAC5 phosphorylation” value in data set [2] is reported as “inhibited”. The “fluid flow-induced HDAC5 nuclear export” value in data set [6] is reported as “failed”.

Turning to `CCCCCCCCCCCCCC(=O)O[C@@H]1[C@@H](C)[C@@]2(O)[C@@H](C=C(CO)C[C@]3(O)C(=O)C(C)=C[C@@H]23)[C@@H]2C(C)(C)[C@]12OC(C)=O` [PMA, 12-myristate 13-acetate], in data set [2], the “HDAC5 phosphorylation in the absence of fluid flow” value is “stimulated”. In addition, the “HDAC5 nuclear exit without fluid flow” value in data set [6] (no fluid flow, 100 nM PMA) is given as “stimulated”.

Consider `O=C(CCCCCCC(=O)Nc1ccccc1)NO` [SAHA, suberoylanilide hydroxamic acid], for which the “blood urea nitrogen (BUN) levels” value in data set [7] (100 mg/kg i.p. daily 5 days on, 2 days off, compared to vehicle) is reported as “significantly lower”. In addition, the animals lost entry in data set [7] (100 mg/kg i.p., n=15 per group) is reported as “one”. For the same molecule, the “renal tubular epithelial morphology” value in data set [7] (100 mg/kg i.p., kidney images vs control) is recorded as “well organized, nearly normal epithelial morphology”.

As to `[Cl][Gd]([Cl])[Cl]` [GdCl3], the “fluid flow-induced HDAC5 phosphorylation” value in data set [2] is “blocked”. The “fluid flow-induced HDAC5 nuclear export” value in data set [6] is listed as “failed”.
